The values that follow come from patent publication US20050165053A1, “Substituted4-aryl-3-(3-aryl-1-oxo-2-propenyl)-2(1h)-quinolinones and analogs as activators of caspases and inducers of apoptosis and the use thereof” (Cytovia, Inc., priority 2001, published 2005).

Assay [1] has as its system T-47D. Nature of the assay: Caspase cascade activation assay in T-47D cells (N-(Ac-DEVD)-N'-ethoxycarbonyl-R110 fluorogenic substrate). The assay is classed as cell-based, Human. The note with it: 24 h incubation; for Caspase activity Ratio (net RFU of test compound to control): 0.016 to 10 μM final; for EC50: Homo sapiens, T47D, read-out: Caspase potency EC50. Here is the method:
(§1) Human breast cancer cell lines T-47D and ZR-75-1 were grown according to media component mixtures designated by American Type Culture Collection+10% FCS (Life Technologies Division of Invitrogen Corporation), in a 5% CO2-95% humidity incubator at 37° C. T-47D and ZR-75-1 cells were maintained at a cell density between 50 and 80% confluency at a cell density of 0.1 to 0.6×10^6 cells/ml. Cells were harvested at 600×g and resuspended at 0.65×10^6 cells/ml into appropriate media+10% FCS. An aliquot of 45 μl of cells was added to a well of a 96-well microtiter plate containing 2.5 μl of a 10% DMSO in RPMI-1640 media solution containing 0.16 to 100 μM of 6-bromo-3-[3-(4-nitrophenyl)-1-oxo-2-propenyl]-4-phenyl-2(1H)-quinolinone or other test compound (0.016 to 10 μM final). An aliquot of 22.5 μl of cells was added to a well of a 384-well microtiter plate containing 2.5 μl of a 10% DMSO in RPMI-1640 media solution without test compound as the control sample. The samples were mixed by agitation and then incubated at 37° C. for 24 h in a 5% CO2-95% humidity incubator. After incubation, the samples were removed from the incubator and 25 μl of a solution containing 14 μM of N-(Ac-DEVD)-N′-ethoxycarbonyl-R110 (SEQ ID No.: 1) fluorogenic substrate (Cytovia, Inc.; WO99/18856), 20% sucrose (Sigma), 20 mM DTT (Sigma), 200 mM NaCl (Sigma), 40 mM Na PIPES buffer pH 7.2 (Sigma), and 500 μg/ml lysolecithin (Calbiochem) was added. The samples were mixed by agitation and incubated at room temperature. Using a fluorescent plate reader (Model SpectraMax Gemini, Molecular Devices), an initial reading (T=0) was made approximately 1-2 min after addition of the substrate solution, employing excitation at 485 nm and emission at 530 nm, to determine the background fluorescence of the control sample. After the 3 h incubation, the samples were read for fluorescence as above (T=3 h).
(§2) The Relative Fluorescence Unit values (RFU) were used to calculate the sample readings as follows: RFU(T=3h)−Control RFU(T=0)=Net RFU(T=3h)
(§3) The activity of caspase cascade activation was determined by the ratio of the net RFU value for 6-bromo-3-[3-(4-nitrophenyl)-1-oxo-2-propenyl]-4-phenyl-2(1H)-quinolinone or other test compound to that of control samples. The EC50 (nM) was determined by a sigmoidal dose-response calculation (Prism 2.0, GraphPad Software Inc.).

Assay [2] has as its system ZR-75-1. The experiment in a line: Caspase cascade activation assay in ZR-75-1 cells (N-(Ac-DEVD)-N'-ethoxycarbonyl-R110 fluorogenic substrate). As to conditions: ZR-75-1, 24 h incubation; for EC50: Homo sapiens, read-out: Caspase potency EC50; for Caspase activity Ratio (net RFU of test compound to control): 0.016 to 10 μM final. The assay is classed as cell-based, Human. Here is the method: as §1, §2, §3

Assay [3] deals with T-47D. Nature of the assay: Inhibition of cell proliferation (GI50), CellTiter 96 AQUEOUS One, T-47D. The note with it: Homo sapiens, T47D, 48 h, read-out: GI50 (dose for 50% inhibition of cell proliferation). The assay is classed as cell-based. As to the method:
(§4) T-47D and ZR-75-1 cells were grown and harvested as in Example 22. An aliquot of 90 μl of cells (2.2×10^4 cells/ml) was added to a well of a 96-well microtiter plate containing 10 μl of a 10% DMSO in RPMI-1640 media solution containing 1 nM to 100 μM of 6-bromo-3-[3-(4-nitrophenyl)-1-oxo-2-propenyl]-4-phenyl-2(1H)-quinolinone (0.1 nM to 10 μM final). An aliquot of 90 μl of cells was added to a well of a 96-well microtiter plate containing 10 μl of a 10% DMSO in RPMI-1640 media solution without compound as the control sample for maximal cell proliferation (AMax). The samples were mixed by agitation and then incubated at 37° C. for 48 h in a 5% CO2-95% humidity incubator. After incubation, the samples were removed from the incubator and 20 μL of CellTiter 96 AQUEOUS One Solution Cell Proliferation™ reagent (Promega) was added. The samples were mixed by agitation and incubated at 37° C. for 2-4 h in a 5% CO2-95% humidity incubator. Using an absorbance plate reader (Model 1420 Wallac Instruments), an initial reading (T=0) was made approximately 1-2 min after addition of the solution, employing absorbance at 490 nm. This determines the possible background absorbance of the test compounds. No absorbance for 6-bromo-3-[3-(4-nitrophenyl)-1-oxo-2-propenyl]-4-phenyl-2(1H)-quinolinone was found at 490 nm. After the 2-4 h incubation, the samples were read for absorbance as above (ATest). […]

Assay [4] has as its system ZR-75-1. Nature of the assay: Inhibition of cell proliferation (GI50), CellTiter 96 AQUEOUS One, ZR-75-1. The assay is classed as cell-based. The note with it: Homo sapiens, ZR-75-1, 48 h; read-out: GI50 (dose for 50% inhibition of cell proliferation). Here is the method: as §4
The next assay has as its system T-47D cells. Nature of the assay: Apoptosis in T-47D cells by propidium iodide flow cytometry (sub-diploid DNA content). Type of assay: cell-based, Human. The note with it: 5 μM, 48 h, control 3%. Here is the method: T-47D, a breast cancer cell line, was maintained and harvested as described in Example 22. 5×10^5 cells were treated with 5 μM of 6-bromo-3-[3-(4-nitrophenyl)-1-oxo-2-propenyl]-4-phenyl-2(1H)-quinolinone for 48 h at 37° C. As a control, cells were also incubated with equivalent amount of solvent (DMSO). Cells were harvested at 1,200 rpm and then transferred to 12×75 mm polystyrene tubes. Cells were then resuspended in 500 μl of 1% Na Citrate, 0.1% Triton X-100, 50 μg/ml of propidium iodide and incubated at room temperature for 30 min followed by flow cytometer analysis. All flow cytometry analyses were performed on FACScalibur (Becton Dickinson) using Cell Quest analysis software. The x-axis plotted the amount of fluorescence and the y-axis is plotted the number of cells with the indicated fluorescence. The T-47D control cell population profile is seen in FIG. 1A. The sub-diploid DNA content of cells (FIG. 1B) is increased from 3% to 49% with compound treatment. The sub-diploid amount of DNA is indicative of apoptotic cells which have undergone DNA degradation or fragmentation.
For orientation: A flow cytometer gives signals particle by particle.

Assay [5] concerns the target T1, protein tyrosine phosphatase 1B (PTP1B) (Homo sapiens, UniProt P18031).
T1 sequence (P18031 1-435): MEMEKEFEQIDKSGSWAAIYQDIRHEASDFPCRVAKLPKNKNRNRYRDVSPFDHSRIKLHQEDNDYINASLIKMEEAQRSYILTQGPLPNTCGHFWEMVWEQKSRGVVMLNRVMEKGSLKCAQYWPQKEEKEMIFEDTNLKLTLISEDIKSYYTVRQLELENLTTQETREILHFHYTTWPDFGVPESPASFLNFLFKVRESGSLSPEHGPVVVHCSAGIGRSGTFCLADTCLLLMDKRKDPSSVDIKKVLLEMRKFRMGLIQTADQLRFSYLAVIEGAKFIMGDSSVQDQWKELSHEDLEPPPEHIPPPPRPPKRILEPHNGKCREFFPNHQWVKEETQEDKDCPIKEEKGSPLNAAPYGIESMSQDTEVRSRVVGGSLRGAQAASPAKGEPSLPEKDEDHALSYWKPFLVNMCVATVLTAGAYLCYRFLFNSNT
As to conditions: read-out: Ki5; cited from earlier work.

With `O=C(C=Cc1ccc([N+](=O)[O-])cc1)c1c(-c2ccccc2)c2cc(Br)ccc2[nH]c1=O` [Compound A, 6-bromo-3-[3-(4-nitrophenyl)-1-oxo-2-propenyl]-4-phenyl-2(1H)-quinolinone], the “Caspase activity Ratio (net RFU of test compound to control)” value (shortened to “Caspase activity Ratio”) in the assay with T-47D [1] came out at 8.7; with ZR-75-1 [2] it was 12.4. In addition, the EC50 in the assay with T-47D [1] was determined as 1900 nM; with ZR-75-1 [2], 3300 nM. The GI50 in the assay with T-47D [3] and with ZR-75-1 [4] was 500 nM in each case. Moreover, the “sub-diploid DNA content of cells (M1)” value with T-47D cells worked out at 49%.

On to `O=C(/C=C/c1cccc([N+](=O)[O-])c1)c1c(-c2ccccc2)c2ccc([N+](=O)[O-])cc2[nH]c1=O` [7-Nitro-3-[3-(3-nitrophenyl)-acryloyl]-4-phenyl-1H-quinolin-2-one], for which the Ki in assay [5] was 54000 nM.

As to `O=C(C=Cc1cccc([N+](=O)[O-])c1)c1c(-c2ccccc2)c2cc(Br)ccc2[nH]c1=O` [Compound B, 6-bromo-3-[3-(3-nitrophenyl)-1-oxo-2-propenyl]-4-phenyl-2(1H)-quinolinone], in the assay on T-47D [1], the “Caspase activity Ratio” value was found to be 10.6 and the EC50 was 849 nM. In addition, in the assay on ZR-75-1 [2], the concentration for a half-maximal effect (EC50) came out at 1800 nM and the “Caspase activity Ratio” value is reported as 12.1.

Usually EC50 stands for the concentration needed to bring the measured effect to its halfway point.
